Source: ChEMBL document CHEMBL1142681, “Three-dimensional structure-activity relationships of nonsteroidal ligands in complex with androgen receptor ligand-binding domain” (J Med Chem, 2005)

Molecular target: T1, Androgen receptor (Rattus norvegicus, UniProt P15207)
T1 sequence (P15207 whole entry): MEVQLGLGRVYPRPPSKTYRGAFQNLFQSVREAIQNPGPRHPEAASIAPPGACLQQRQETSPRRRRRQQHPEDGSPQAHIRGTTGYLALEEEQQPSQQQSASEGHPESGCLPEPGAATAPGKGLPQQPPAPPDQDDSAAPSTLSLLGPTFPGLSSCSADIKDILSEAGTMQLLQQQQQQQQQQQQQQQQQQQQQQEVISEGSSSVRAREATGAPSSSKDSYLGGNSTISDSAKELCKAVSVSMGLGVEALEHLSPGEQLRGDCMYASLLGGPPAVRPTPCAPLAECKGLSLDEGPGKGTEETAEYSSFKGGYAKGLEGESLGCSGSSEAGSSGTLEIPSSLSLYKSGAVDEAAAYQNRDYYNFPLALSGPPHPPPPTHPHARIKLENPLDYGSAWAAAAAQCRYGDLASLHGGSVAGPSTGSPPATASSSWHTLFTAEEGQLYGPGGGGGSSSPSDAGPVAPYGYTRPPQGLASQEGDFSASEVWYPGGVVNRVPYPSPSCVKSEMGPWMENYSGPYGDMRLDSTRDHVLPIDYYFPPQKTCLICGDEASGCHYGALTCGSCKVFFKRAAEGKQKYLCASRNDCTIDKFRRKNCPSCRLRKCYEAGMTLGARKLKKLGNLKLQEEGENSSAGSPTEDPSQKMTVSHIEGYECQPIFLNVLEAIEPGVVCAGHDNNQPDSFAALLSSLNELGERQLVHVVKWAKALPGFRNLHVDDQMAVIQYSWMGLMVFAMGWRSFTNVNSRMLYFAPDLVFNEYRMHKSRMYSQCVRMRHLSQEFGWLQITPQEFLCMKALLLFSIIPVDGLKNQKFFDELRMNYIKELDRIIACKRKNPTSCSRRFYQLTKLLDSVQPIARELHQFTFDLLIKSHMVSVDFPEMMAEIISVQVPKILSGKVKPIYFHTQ
Description: Inhibition of [3H]mibolerone binding to cytosolic androgen receptor of rat ventral prostate

Compound C[C@](O)(CBr)C(=O)Nc1ccc([N+](=O)[O-])cc1 has a Ki of 33.1 nM.

In the case of C[C@](O)(CBr)C(=O)Nc1ccc([N+](=O)[O-])cc1[N+](=O)[O-], the Ki is reported as 1170 nM.

Work on C[C@](O)(CS(=O)(=O)c1ccc(NC(=O)CCl)cc1)C(=O)Nc1ccc([N+](=O)[O-])c(C(F)(F)F)c1 yielded a Ki of 6.92 nM.

C[C@](O)(CSc1ccccc1)C(=O)Nc1ccc2c(C(F)(F)F)cc(=O)oc2c1 showed a Ki of 132 nM.

CC(=O)Nc1ccc(SC[C@@](C)(O)C(=O)Nc2ccc([N+](=O)[O-])c(C(F)(F)F)c2)cc1 showed a Ki of 123 nM.

For CCC(=O)Nc1ccc(SC[C@](C)(O)C(=O)Nc2ccc(C#N)c(C(F)(F)F)c2)cc1, the Ki was 26.9 nM.

Work on C[C@](O)(CS(=O)(=O)c1ccc(NC(=O)C(F)(F)F)cc1)C(=O)Nc1ccc([N+](=O)[O-])c(C(F)(F)F)c1 yielded a Ki of 6.17 nM.

Work on C[C@](O)(CSc1ccc(N)cc1)C(=O)Nc1ccc2c(C(F)(F)F)cc(=O)oc2c1 yielded a Ki of 288 nM.

C[C@](O)(CSc1ccc(NC(=O)CCl)cc1)C(=O)Nc1ccc([N+](=O)[O-])c(C(F)(F)F)c1 was tested, and the Ki was 3.31 nM.

For C[C@](O)(CSc1ccc(NC(=O)C(F)(F)F)cc1)C(=O)Nc1ccc([N+](=O)[O-])c(C(F)(F)F)c1, the Ki was 2.57 nM.

For C[C@@](O)(CS(=O)(=O)c1ccc(NC(=O)CCl)cc1)C(=O)Nc1ccc([N+](=O)[O-])c(C(F)(F)F)c1, the Ki was 234 nM.

CC(=O)Nc1ccc(S(=O)(=O)C[C@](C)(O)C(=O)Nc2ccc(C#N)c(C(F)(F)F)c2)cc1 was tested, and the Ki was 15.8 nM.

CC(=O)Nc1ccc(SC[C@](C)(O)C(=O)Nc2ccc(C#N)c(C(F)(F)F)c2)cc1 [ACETOTHIOLUTAMIDE] was tested, and the Ki was 4.9 nM.

C[C@](O)(CS(=O)(=O)c1ccc(N)cc1)C(=O)Nc1ccc(C#N)c(C(F)(F)F)c1 showed a Ki of 32.4 nM.

With C[C@@](O)(CSc1ccc(NC(=O)CCl)cc1)C(=O)Nc1ccc([N+](=O)[O-])c(C(F)(F)F)c1 the Ki was 97.7 nM.

Cc1cc(=O)oc2cc(NC(=O)[C@@](C)(O)CSc3ccc(F)cc3)ccc12 showed a Ki of 91.2 nM.

CC(=O)Nc1ccc(SC[C@@](C)(O)C(=O)Nc2ccc(C#N)c(C(F)(F)F)c2)cc1 was tested, and the Ki was 1380 nM.

C[C@](O)(CBr)C(=O)Nc1ccc(N)c(C(F)(F)F)c1 was tested, and the Ki was 81.3 nM.

CC(=O)Nc1ccc(S(=O)(=O)C[C@@](C)(O)C(=O)Nc2ccc([N+](=O)[O-])c(C(F)(F)F)c2)cc1 was tested, and the Ki was 589 nM.

Work on CCC(=O)N(C(=O)CC)c1ccc(SC[C@](C)(O)C(=O)Nc2ccc(C#N)c(C(F)(F)F)c2)cc1 yielded a Ki of 661 nM.

Work on CC(=O)N(C(C)=O)c1ccc(SC[C@](C)(O)C(=O)Nc2ccc(C#N)c(C(F)(F)F)c2)cc1 yielded a Ki of 105 nM.

Work on C[C@](O)(CS(=O)(=O)c1ccc(NS(C)(=O)=O)cc1)C(=O)Nc1ccc([N+](=O)[O-])c(C(F)(F)F)c1 yielded a Ki of 15.1 nM.

Work on C[C@](O)(CBr)C(=O)Nc1ccc2c(C(F)(F)F)cc(=O)oc2c1 yielded a Ki of 132 nM.

With CC(=O)Nc1ccc(SC[C@](C)(O)C(=O)Nc2ccc([N+](=O)[O-])c(C(F)(F)F)c2)cc1 the Ki was 2.88 nM.

With C[C@](O)(CSc1ccc(N=C=S)cc1)C(=O)Nc1ccc2c(C(F)(F)F)cc(=O)oc2c1 the Ki was 135 nM.

Work on C[C@](O)(CSc1ccc(N)cc1)C(=O)Nc1ccc([N+](=O)[O-])c(C(F)(F)F)c1 yielded a Ki of 57.5 nM.

With C[C@@](O)(CBr)C(=O)Nc1ccc2c(C(F)(F)F)cc(=O)oc2c1 the Ki was 245 nM.

In the case of C[C@@](O)(CSc1ccc(N)cc1)C(=O)Nc1ccc([N+](=O)[O-])c(C(F)(F)F)c1, the Ki is reported as 525 nM.

In the case of C[C@](O)(CSc1ccc(NS(C)(=O)=O)cc1)C(=O)Nc1ccc([N+](=O)[O-])c(C(F)(F)F)c1, the Ki is reported as 50.1 nM.
